Measurements reported in patent US9999619B2, “Piperidin-4-yl azetidine derivatives as JAK1 inhibitors” (Incyte Corporation, priority 2010, dated 2018).

What was measured:
Type in all cases: biochemical
[1] = target: human JAK1 (a.a. 837-1142) (Homo sapiens, UniProt P23458); assay: In vitro JAK kinase assay (HTRF, phosphorylation of a biotinylated peptide), JAK1; details: measured at 1 mM ATP
Procedure, shortened: (§1)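 N-terminal His-tagged catalytic domains, baculovirus-expressed in insect cells, phosphorylated a biotinylated peptide for 1 hr at room temperature. EDTA stop was followed by SA-APC and Eu-Py20 antibody for 40 minutes, with phosphopeptide read by HTRF.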

[2] = target: human JAK1 (a.a. 837-1142); assay: as above; details: ratio of JAK2 IC50 to JAK1 IC50, measured at 1 mM ATP
Procedure, shortened: as §1

Jak2 (a.a. 828-1132) = Jak2 (a.a. 828-1132) (Homo sapiens (Human), UniProt O60674); assay: In vitro JAK kinase assay (HTRF, phosphorylation of a biotinylated peptide), JAK2; details: measured at 1 mM ATP
Procedure, shortened: as §1

Chain of Jak2 (a.a. 828-1132) (O60674 828-1132): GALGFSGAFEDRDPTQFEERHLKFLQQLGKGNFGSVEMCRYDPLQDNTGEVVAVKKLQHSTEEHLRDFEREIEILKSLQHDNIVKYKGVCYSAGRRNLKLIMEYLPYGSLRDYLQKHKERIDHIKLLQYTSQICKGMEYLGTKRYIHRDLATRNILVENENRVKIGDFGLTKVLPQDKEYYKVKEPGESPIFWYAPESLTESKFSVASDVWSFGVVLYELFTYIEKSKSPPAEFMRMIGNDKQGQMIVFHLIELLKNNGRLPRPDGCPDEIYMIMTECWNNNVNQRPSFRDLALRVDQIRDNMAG

| Compound | IC50 [1] [nM] | IC50 Ratio JAK2/JAK1 [2] | IC50 (Jak2 (a.a. 828-1132)) [nM] |
| --- | --- | --- | --- |
| N#CCC1(n2cc(-c3c(F)cnc4[nH]ccc34)cn2)CN(C2CCN(C(=O)c3ccc(O)cc3F)CC2)C1 [Example 323, {1-[1-(2-fluoro-4-hydroxybenzoyl)piperidin-4-yl]-3-[4-(5-fluoro-1H-pyrrolo[2,3-b]pyridin-4-yl)-1H-pyrazol-1-yl]azetidin-3-yl}acetonitrile] | ≤ 5 | 5.0 | ≤ 10 |
| N#CCC1(n2cc(-c3ncnc4[nH]ccc34)cn2)CN(C2CCN(C(=O)Nc3ncccc3F)CC2)C1 [Example 202, 4-{3-(cyanomethyl)-3-[4-(7H-pyrrolo[2,3-d]pyrimidin-4-yl)-1H-pyrazol-1-yl]azetidin-1-yl}-N-(3-fluoropyridin-2-yl)piperidine-1-carboxamide] | ≤ 5 | 6.4 | 10 to 50 |
| N#CCC1(n2cc(-c3ncnc4[nH]ccc34)cn2)CN(C2CCN(C(=O)c3ccc(-c4ccccc4C#N)c(F)c3)CC2)C1 [Example 124, 4′-[(4-{3-(cyanomethyl)-3-[4-(7H-pyrrolo[2,3-d]pyrimidin-4-yl)-1H-pyrazol-1-yl]azetidin-1-yl}piperidin-1-yl)carbonyl]-2′-fluorobiphenyl-2-carbonitrile] | ≤ 5 | 8.4 | ≤ 10 |
| N#CCC1(n2cc(-c3ncnc4[nH]ccc34)cn2)CN(C2CC3CCC(C2)N3C(=O)c2ccnc(C(F)(F)F)c2F)C1 (stereo not drawn) [Example 142, {1-{8-[3-fluoro-2-(trifluoromethyl)isonicotinoyl]-8-azabicyclo[3.2.1]oct-3-yl}-3-[4-(7H-pyrrolo[2,3-d]pyrimidin-4-yl)-1H-pyrazol-1-yl]azetidin-3-yl}acetonitrile] | ≤ 5 | 7.4 | ≤ 10 |
| N#CCC1(n2cc(-c3ccnc4[nH]ccc34)cn2)CN(C2CCN(C(=O)c3ccc(O)c(F)c3)CC2)C1 [Example 296, {1-[1-(3-fluoro-4-hydroxybenzoyl)piperidin-4-yl]-3-[4-(1H-pyrrolo[2,3-b]pyridin-4-yl)-1H-pyrazol-1-yl]azetidin-3-yl}acetonitrile] | ≤ 5 | 4.6 | 10 to 50 |
| N#CCC1(n2cc(-c3ncnc4[nH]ccc34)cn2)CN(C2CCN(C(=O)c3c(F)cc(C#N)cc3F)CC2)C1 [Example 83, 4-[(4-{3-(cyanomethyl)-3-[4-(7H-pyrrolo[2,3-d]pyrimidin-4-yl)-1H-pyrazol-1-yl]azetidin-1-yl}piperidin-1-yl)carbonyl]-3,5-difluorobenzonitrile] | ≤ 5 | 5.8 | 10 to 50 |
| N#CCC1(n2ccc(-c3ncnc4[nH]ccc34)c2)CN(C2CCN(C(=O)c3ccc(O)c(C(F)(F)F)c3)CC2)C1 [Example 282, {1-{1-[4-hydroxy-3-(trifluoromethyl)benzoyl]piperidin-4-yl}-3-[3-(7H-pyrrolo[2,3-d]pyrimidin-4-yl)-1H-pyrrol-1-yl]azetidin-3-yl}acetonitrile] | 5 to 20 | 3.4 | 10 to 50 |
| COc1ncccc1NC(=O)N1CCC(N2CC(CC#N)(n3cc(-c4ccnc5[nH]ccc45)cn3)C2)CC1 [Example 306, 4-{3-(cyanomethyl)-3-[4-(1H-pyrrolo[2,3-b]pyridin-4-yl)-1H-pyrazol-1-yl]azetidin-1-yl}-N-(2-methoxypyridin-3-yl)piperidine-1-carboxamide] | 5 to 20 | 3.5 | 10 to 50 |
| N#CCC1(n2cc(-c3ncnc4[nH]ccc34)cn2)CN(C2CCN(S(=O)(=O)c3ccccc3C#N)CC2)C1 [Example 247, 2-[(4-{3-(cyanomethyl)-3-[4-(7H-pyrrolo[2,3-d]pyrimidin-4-yl)-1H-pyrazol-1-yl]azetidin-1-yl}piperidin-1-yl)sulfonyl]benzonitrile] | ≤ 5 | 5.1 | ≤ 10 |
| N#CCC1(n2cc(-c3ncnc4[nH]ccc34)cn2)CN(C2CCN(C(=O)Nc3ccc(OC(F)(F)F)cc3)CC2)C1 [Example 182, 4-{3-(cyanomethyl)-3-[4-(7H-pyrrolo[2,3-d]pyrimidin-4-yl)-1H-pyrazol-1-yl]azetidin-1-yl}-N-[4-(trifluoromethoxy)phenyl]piperidine-1-carboxamide] | 5 to 20 | 3.7 | 10 to 50 |
| N#CCC1(n2cc(-c3ncnc4[nH]ccc34)cn2)CN(C2CCN(C(=O)Cc3c(Cl)cccc3Cl)CC2)C1 [Example 112, {1-{1-[(2,6-dichlorophenyl)acetyl]piperidin-4-yl}-3-[4-(7H-pyrrolo[2,3-d]pyrimidin-4-yl)-1H-pyrazol-1-yl]azetidin-3-yl}acetonitrile] | 5 to 20 | 8.2 | 50 to 100 |
| N#CCC1(n2cc(-c3ncnc4[nH]ccc34)cn2)CN(C2CCN(C(=O)c3ccc(-c4ccccc4)cc3)CC2)C1 [Example 114, {1-[1-(biphenyl-4-ylcarbonyl)piperidin-4-yl]-3-[4-(7H-pyrrolo[2,3-d]pyrimidin-4-yl)-1H-pyrazol-1-yl]azetidin-3-yl}acetonitrile] | 5 to 20 | 1.5 | 10 to 50 |
| CN(C)c1ccc(C(=O)N2CCC(N3CC(CC#N)(n4cc(-c5ncnc6[nH]ccc56)cn4)C3)CC2)cc1C#N [Example 59, 5-[(4-{3-(cyanomethyl)-3-[4-(7H-pyrrolo[2,3-d]pyrimidin-4-yl)-1H-pyrazol-1-yl]azetidin-1-yl}piperidin-1yl)carbonyl]-2-(dimethylamino)benzonitrile] | ≤ 5 | 4.6 | ≤ 10 |
| CC(C)(C)C(=O)Nc1ncccc1CN1CCC(N2CC(CC#N)(n3cc(-c4ncnc5[nH]ccc45)cn3)C2)CC1 [Example 235] | 5 to 20 | 2.5 | 10 to 50 |
| N#CCC1(n2cc(-c3c(C#N)cnc4[nH]ccc34)cn2)CN(C2CCN(C(=O)c3cc(C#N)cc(C#N)c3)CC2)C1 [Example 338, 5-[(4-{3-(cyanomethyl)-3-[4-(5-cyano-1H-pyrrolo[2,3-b]pyridin-4-yl)-1H-pyrazol-1-yl]azetidin-1-yl}piperidin-1-yl)carbonyl]isophthalonitrile] | 5 to 20 | 7.4 | 50 to 100 |

Results, then the compound that gave them:

| IC50 [1] [nM] | IC50 Ratio JAK2/JAK1 [2] | IC50 (Jak2 (a.a. 828-1132)) [nM] | Compound |
| --- | --- | --- | --- |
| 5 to 20 | 5.6 | 10 to 50 | CC1(COC(=O)N2CCC(N3CC(CC#N)(n4cc(-c5ncnc6[nH]ccc56)cn4)C3)CC2)CC1 [Example 392, (1-methylcyclopropyl)methyl 4-{3-(cyanomethyl)-3-[4-(7H-pyrrolo[2,3-d]pyrimidin-4-yl)-1H-pyrazol-1-yl]azetidin-1-yl}piperidine-1-carboxylate] |
| ≤ 5 | 28.9 | 50 to 100 | CN(CCCO)Cc1cc(C(=O)N2CCC(N3CC(CC#N)(n4cc(-c5ncnc6[nH]ccc56)cn4)C3)CC2)nc(C(F)(F)F)n1 [Example 385, {1-(1-{[6-{[(3-hydroxypropyl)(methyl)amino]methyl}-2-(trifluoromethyl)pyrimidin-4-yl]carbonyl}piperidin-4-yl)-3-[4-(7H-pyrrolo[2,3-d]pyrimidin-4-yl)-1H-pyrazol-1-yl]azetidin-3-yl}acetonitrile] |
| ≤ 5 | 67.3 | 10 to 50 | N#CCC1(n2cc(-c3ncnc4[nH]ccc34)cn2)CN(C2CCN(C(=O)c3cc(CN4CCC4)nc(C(F)(F)F)n3)CC2)C1 [Example 372, {1-(1-{[6-(azetidin-1-ylmethyl)-2-(trifluoromethyl)pyrimidin-4-yl]carbonyl}piperidin-4-yl)-3-[4-(7H-pyrrolo[2,3-d]pyrimidin-4-yl)-1H-pyrazol-1-yl]azetidin-3-yl}acetonitrile] |
| ≤ 5 | 3.1 | ≤ 10 | CS(=O)(=O)N1CCC(N2CC(CC#N)(n3cc(-c4c(F)cnc5[nH]ccc45)cn3)C2)CC1 [Example 355, {3-[4-(5-Fluoro-1H-pyrrolo[2,3-b]pyridin-4-yl)-1H-pyrazol-1-yl]-1-[1-(methylsulfonyl)piperidin-4-yl]azetidin-3-yl}acetonitrile] |
| ≤ 5 | 24.4 | 50 to 100 | N#CCC1(n2cc(-c3ncnc4[nH]ccc34)cn2)CN(C2CCN(C(=O)OCc3cc(F)cc(F)c3)CC2)C1 [Example 395, 3,5-difluorobenzyl 4-{3-(cyanomethyl)-3-[4-(7H-pyrrolo[2,3-d]pyrimidin-4-yl)-1H-pyrazol-1-yl]azetidin-1-yl}piperidine-1-carboxylate] |
| 20 to 30 | 1.4 | 10 to 50 | N#CCC1(n2cc(-c3c(C#N)cnc4[nH]ccc34)cn2)CN(C2CCN(C(=O)c3c(F)cc(C#N)cc3F)CC2)C1 [Example 340, 4-{1-[1-[1-(4-cyano-2,6-difluorobenzoyl)piperidin-4-yl]-3-(cyanomethyl)azetidin-3-yl]-1H-pyrazol-4-yl}-1H-pyrrolo[2,3-b]pyridine-5-carbonitrile] |
| ≤ 5 | 5.9 | 10 to 50 | N#CCC1(n2ccc(-c3ncnc4[nH]ccc34)c2)CN(C2CCN(C(=O)c3nc(C(F)(F)F)cs3)CC2)C1 [Example 346, [3-[3-(7H-Pyrrolo[2,3-d]pyrimidin-4-yl)-1H-pyrrol-1-yl]-1-(1-{[4-(trifluoromethyl)-1,3-thiazol-2-yl]carbonyl}piperidin-4-yl)azetidin-3-yl]acetonitrile] |
| 5 to 20 | 11.9 | 50 to 100 | N#CCC1(n2ccc(-c3ncnc4[nH]ccc34)c2)CN(C2CCN(C(=O)c3ccnc(C(F)(F)F)n3)CC2)C1 [Example 345, [3-[3-(7H-Pyrrolo[2,3-d]pyrimidin-4-yl)-1H-pyrrol-1-yl]-1-(1-{[2-(trifluoromethyl)pyrimidin-4-yl]carbonyl}piperidin-4-yl)azetidin-3-yl]acetonitrile] |
